Our source for the EC50 and CC50 values is patent publication US20130085133A1, “ANTI-VIRAL TREATMENT AND ASSAY TO SCREENFOR ANTI-VIRAL AGENT” (Sourthern Research Institute Office of Commercialization …, priority 2010, published 2013).

Data set [1] deals with respiratory syncytial virus (RSV) strain Long. In words: microbe, parasite or virus in culture. Particulars: human respiratory syncytial virus, HEp-2, 144 h.
Data set [2] in a line: cytotoxicity assay (percent viability of HEp-2 cells, Cell Titer-Glo). Particulars: human, HEp-2 cells. A general note: Cellular ATP, detected with luciferase, serves as a proxy for viable cell number.

The structures appear in SMILES notation.

A word on the EC50: it is the concentration needed to bring the measured effect to its halfway point. A low value points to higher potency in that assay. For orientation: CC50 means the concentration at which the toxic effect on the cells reaches its halfway point. High values mean lower toxicity to the cells, low ones greater toxicity to the cells.

In data set [1], `COc1ccc(C(=O)N2CCC(C(=O)Nc3cccc(Br)c3)CC2)cc1` [AB00299547] displayed an EC50 of 18.1 µg/mL. In data set [2], this molecule registered a CC50 at 6 days above 25 µg/mL.
Taken in the same sequence, the figures for `Cc1cc(C)cc(OCC(=O)N2CCc3ccccc3C2)c1` [AB00315731] were 21.1 µg/mL and above 25 µg/mL.
Taken in the same sequence, the figures for `C=CC/N=c1\scc(-c2ccc(C)cc2)n1/N=C/c1ccccn1` [AB00718339] were 1.14 µM and above 50 µM.
The matching figures for `O=C(Nc1ccc2c(c1)ncn2C1CCCCC1)c1cccs1` [AB00369934]: 13.6 µg/mL and above 25 µg/mL.
Molecule `C=CCNc1cc(N2CCN(C(=O)c3ccc(C)cc3)CC2)ccc1[N+](=O)[O-]` [AB00319534] yielded a half-maximal effective concentration (EC50) in data set [1] of 13.8 µg/mL. In data set [2], the CC50 at 6 days is above 25 µg/mL.
The matching figures for `O=C(COc1ccc(Cl)c(Cl)c1)Nc1cccc(C(=O)NC2CC2)c1` [AB00784993]: 12 µM and above 50 µM.
Taken in the same sequence, the figures for `Fc1cccc(COc2ccc(C(=S)N3CCOCC3)cc2)c1` [AB00293926] were 10.8 µg/mL and above 25 µg/mL.
The matching figures for `O=C1c2ccccc2C(=O)N1CCc1nc2ccccc2c(=O)n1-c1cc(Cl)ccc1Cl` [AB00307079]: 14.3 µg/mL and above 25 µg/mL.
With `CCCCC(=O)Nc1cccc(NC(=O)c2ccccc2OC)c1` [AB00317410], in data set [1], the EC50 was 22.8 µg/mL. In data set [2], this molecule showed a CC50 at 6 days above 25 µg/mL.
The matching figures for `Clc1ccccc1OCc1noc(-c2cccs2)n1` [AB00877365]: 38.8 µM and above 50 µM.
The matching figures for `O=S(=O)(Nc1ccc(-c2cn3cccnc3n2)cc1)c1cc(Cl)ccc1Cl` [AB00370838]: 22.5 µg/mL and above 25 µg/mL.
Consider `CCOc1ccc(-c2nnc(Nc3ccc(OC)c(C(=O)NC)c3)c3ccccc23)cc1` [AB00317165], for which, in data set [1], the EC50 came to 19.5 µg/mL. The cytotoxic concentration (CC50) at 6 days in data set [2] is above 25 µg/mL.
Regarding `COc1ccc(CN2C(=O)CC(Cc3ccccc3)C2=O)cc1` (stereo not shown) [AB00307412], the response in data set [1] was half-maximal at 21.1 µg/mL (EC50). Further, the CC50 at 6 days in data set [2] was above 25 µg/mL.
In data set [1], `COc1ccc(NC(=O)c2ccc(C)c(S(=O)(=O)Nc3ccccc3C)c2)cc1OC` [AB00364640] registered an EC50 of 11.5 µg/mL. For the same molecule, in data set [2], the cytotoxic concentration (CC50) at 6 days is above 25 µg/mL.
The matching figures for `Cc1cc(C)cc(NC(=O)c2cccc(NC(=O)c3ccco3)c2)c1` [AB00293678]: 18.6 µg/mL and above 25 µg/mL.
With `Cc1ccc(S(=O)(=O)NC(C(=O)Oc2ccc3c(c2)oc(=O)c2ccccc23)c2ccccc2)cc1` (stereo not shown) [AB00297982], the EC50 in data set [1] came to 11 µg/mL. Besides, the cytotoxic concentration (CC50) at 6 days in data set [2] was above 25 µg/mL.
The molecule `CSc1ccc(Cl)c(C(=O)Nc2ccc(Cc3ccccn3)cc2)c1` [AB00369798] displayed an EC50 in data set [1] of 11.6 µg/mL. In data set [2], the CC50 at 6 days was above 25 µg/mL.
Taken in the same sequence, the figures for `CCn1c(=O)n(CC)c2cc(NC(=O)c3ccccc3Cl)c(Br)cc21` [AB00369510] were 10.4 µg/mL and above 25 µg/mL.
The matching figures for `O=C(O)c1ccc(NC(=S)NC(=O)c2ccc(-c3ccc(Br)cc3)o2)cc1` [AB00301183]: 22.6 µg/mL and above 25 µg/mL.
Taken in the same sequence, the figures for `O=C(Nc1ccc2oc(-c3ccccc3Br)nc2c1)c1ccco1` [AB00294890] were 22.5 µg/mL and above 25 µg/mL.
In turn, `Fc1cccc(NC(=S)NNC(=S)Nc2ccc(Cl)cc2)c1` [AB00348154] returned an EC50 in data set [1] of 10.6 µg/mL. Further, in data set [2], the CC50 at 6 days was above 25 µg/mL.
Taken in the same sequence, the figures for `CCOC(=O)c1ccc(NC(=O)Nc2ccccc2OC)cc1` [AB00365318] were 11.6 µg/mL and above 25 µg/mL.
The matching figures for `CCOC(=O)C1=C(C)Nc2ncnn2C1c1ccc(OC)c(OCC)c1` (stereo not shown) [AB00335740]: 21.1 µg/mL and above 25 µg/mL.
The matching figures for `CNC(=O)Nc1ccccc1C(=O)Nc1ccc(C)cc1` [AB00290142]: 19.4 µg/mL and above 25 µg/mL.
`COc1ccc(-c2cn3cccnc3n2)cc1` [AB00288908] registered an EC50 in data set [1] of 21.6 µg/mL.
